The target in data set [1] is IL-23 mediated signalling (Homo sapiens, UniProt Q5VWK5). Kind of data set: Functional inhibition of IL-23 mediated STAT3 signalling (phospho-STAT3 MSD) in DB cells. The conditions noted are these: for Emax: read-out: hIL-23 (pSTAT3) antagonist % inhibition. It is filed as cell-based. The text has this:
Upon binding of IL-23, the IL-23R forms a heterodimer signalling complex together with IL-12R β1, which through the JAK2/STAT3 pathway promotes phosphorylation of STAT3 to form phospho-STAT3.
For compounds tested in this assay, the response was normalized relative to control values to calculate the IC50 and maximal inhibitory response from a concentration response curve of the compound in presence of a fixed concentration of human IL-23.
The assay procedure was as follows. […] Following preincubation of the DB cells with inhibitor for 15 min in a cell incubator (37 °C, 5% CO2), 20 µL of the prepared 3X the EC80 of hIL-23 solution was added to each well and incubated for 90 min in a cell incubator (37 °C, 5% CO2). For some wells buffer only or IL-23 only corresponding to the EC80 was added to obtain readouts needed for normalization. To terminate the assay, the plate was spun at 1000 G for 5 min to pellet cells, the supernatant removed using an 8-channel manual pipette, and then added 50 µL/well Complete Lysis Buffer from the MSD STAT3 kit (Cat# K150SVD, Mesoscale) to the cell pellet. To completely lyse cells to release phospho-STAT3 for detection, the plate was shaken for 10 min at room temperature (500 rpm) sealed with aluminium foil and placed at -80 °C for a minimum of 15 min. Detection of the phospho-STAT3 level in the cell lysate from the individual wells was determined using the MSD STAT3 kit (Cat# K150SVD, Mesoscale) and read on a Meso QuickPlex SQ 120 plate reader (Mesoscale).
For data analysis raw data counts from the Meso QuickPlex SQ 120 plate reader were normalized relative to the response by the EC80 of h1L-23 alone (no compound added) and the buffer level. Compound potency (IC50) and maximal inhibitory response (% inhibition) were estimated by computer-aided curve fitting using a 4-parameter logistic (4PL) nonlinear model. […] Table 3-2: hIL-23 (pSTAT3) antagonist IC50 and % inhibition

For the next data set, the target named is T1, human IL-23R (Homo sapiens, UniProt Q5VWK5).
T1 sequence (Q5VWK5 22-629): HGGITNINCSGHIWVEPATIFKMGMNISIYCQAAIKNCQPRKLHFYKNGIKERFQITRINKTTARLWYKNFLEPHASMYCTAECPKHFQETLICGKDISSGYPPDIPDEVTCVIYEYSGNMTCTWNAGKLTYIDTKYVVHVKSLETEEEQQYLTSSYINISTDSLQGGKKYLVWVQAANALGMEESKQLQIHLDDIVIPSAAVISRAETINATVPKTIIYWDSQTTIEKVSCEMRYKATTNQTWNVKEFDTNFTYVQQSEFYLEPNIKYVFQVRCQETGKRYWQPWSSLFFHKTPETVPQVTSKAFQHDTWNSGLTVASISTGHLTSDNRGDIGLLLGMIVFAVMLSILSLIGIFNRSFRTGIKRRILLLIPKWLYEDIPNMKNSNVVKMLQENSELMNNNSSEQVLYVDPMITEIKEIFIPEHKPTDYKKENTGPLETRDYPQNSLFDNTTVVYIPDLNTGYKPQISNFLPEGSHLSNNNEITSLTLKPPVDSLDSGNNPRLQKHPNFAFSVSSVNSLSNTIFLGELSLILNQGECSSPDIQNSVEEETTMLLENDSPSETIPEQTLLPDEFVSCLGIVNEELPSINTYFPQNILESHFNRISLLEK
Kind of data set: biochemical. In outline:
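Membranes from HEK293 cells stably expressing Nluc-tagged human IL-23R were incubated 2 h at room temperature with test compound and a fluorophore-labelled tracer. After substrate addition, loss of BRET (TAMRA over luciferase emission) reported tracer displacement. A 4PL fit gave IC50 values.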

The nature of data set [2]: Peptide stability in simulated intestinal fluid (SIF). The conditions noted are these: pig, 37 °C, porcine pancreatin. It is filed as in vitro ADME. An outline of the steps:
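Peptides were incubated at 37 °C with gentle shaking in pH 6.8 potassium phosphate SIF containing porcine pancreatin (10 g/L). Supernatants were analysed by LC-HRMS. Percent remaining at each timepoint, including 4 h, was calculated relative to time zero from absolute peak areas.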

The mark [3] stands for this setting: Table 3-2, maximal inhibitory response, DB cells, hIL-23 at EC80.
Where [4] appears, read: Table 3-2, DB cells, hIL-23 at EC80, read-out: hIL-23 (pSTAT3) antagonist IC50.

Where two headings read alike, the source gives them in different places. *1 amine or outer side, *2 acyl side, *3 side chain or, on linkers, in order; H or OH if unused. Where a SMILES comes first, the peptide text is derived from it. Bridges are numbered along the chain shown (N, C = ends). [ ]: non-standard residue; d: D form. The star is where a group is joined. 2Nal = N[C@@H](Cc1ccc2ccccc2c1)C(=O)O; AEF = NCCOc1ccc(C[C@H](N)C(=O)O)cc1; X1 = O=C(Cc1ccc(CN[*:1])cc1)[*:2]; 3Pal = N[C@@H](Cc1cccnc1)C(=O)O; αMeL = CC(C)C[C@](C)(N)C(=O)O; CH2COCH2 = O=C(C[*:1])C[*:2]; 3Amb = NCc1cccc(C(=O)O)c1; Pyrrolidide = C1CCN(*)C1; Dab = NCC[C@H](N)C(=O)O; X6 = O=C(CN[*:2])[*:1]

`CNC(=O)[C@H](Cc1cccnc1)NC(=O)[C@H](CCN)NC(=O)[C@@H]1CCC(=O)NCC(=O)NCCCC[C@@H]2NC(=O)CC[C@H](NC(=O)[C@H](CCC(N)=O)NC(=O)[C@H](Cc3c[nH]c4ccccc34)NC2=O)C(=O)N[C@@H](Cc2ccc(OCCN)cc2)C(=O)N[C@@H](Cc2ccc3ccccc3c2)C(=O)N[C@@](C)(CC(C)C)C(=O)N1` [Compound 46, [K(G)](1c)(6c)^†WQE(6c)[Y(2-aminoethoxy)][2-Nal][2-Me-Leu]E(1c)[Dab][3-(3-Pyridyl)-Ala]-[NHMe]] (KWQE[AEF][2Nal][αMeL]E[Dab][3Pal]-NHMe; linker 1-8 via X6; lactam N-4): the values for the Emax (in data set [1] (setting [3]); at human IL-23R (read-out: % displacement (hIL-23R NIuc))) were 102% and 104%, respectively. For the same molecule, half-maximal inhibition against human IL-23R (IC50) required 7.3 nM.
In the case of `CC(=O)N[C@H]1CCSC[C@@H](C(=O)N[C@@H](Cc2ccc(OCCN)cc2)C(=O)N[C@@H](Cc2c[nH]c3ccccc23)C(=O)N[C@@](C)(CCCCN)C(=O)N[C@@H](CCC(=O)O)C(=O)N[C@@H](CC(N)=O)C(=O)NCC(N)=O)NC(=O)[C@H](CCC(N)=O)NC(=O)[C@H](Cc2c[nH]c3ccccc23)NC(=O)[C@H]([C@@H](C)O)NC(=O)[C@H](CCC(N)=O)NC1=O` [Compound C, [Ac]-[Abu](16i)QTWQC(16i)[Y(2-aminoethoxy)]W[2-Me-Lys]ENG-[NH2], reference compound], the 50% inhibitory concentration (IC50) in data set [1] (setting [4]) was 13 nM. Moreover, the Emax in data set [1] (setting [3]) is 99%. At human IL-23R, the “% displacement (hIL-23R NIuc)” value worked out at 102%, the IC50 stood at 2.6 nM and affinity was put at a Ki of 2.11 nM.
For `CC(=O)N[C@H]1CCCCNC(=O)CC[C@@H](C(=O)N[C@@H](CCCNC(=N)N)C(N)=O)NC(=O)[C@H](CC(C)C)NC(=O)[C@H](Cc2ccc3ccccc3c2)NC(=O)[C@H](Cc2c[nH]c3ccccc23)NC(=O)[C@@H]2CSCC(=O)CSC[C@H](NC(=O)[C@H](CO)NC1=O)C(=O)N[C@@H](Cc1c[nH]c3ccccc13)C(=O)N[C@@H](CCC(N)=O)C(=O)N2` [Ref 18, [Ac]-K(1c)SC(2a)WQC(2a)W[2-Nal]LE(1c)R-[NH2], reference compound] (HELM PEPTIDE1{[ac].K.S.C.W.Q.C.W.[O=C([C@H](Cc1ccc2ccccc2c1)N[*:1])[*:2]].L.E.R.[am]}|CHEM1{[O=C(C[*:1])C[*:2]]}$PEPTIDE1,PEPTIDE1,2:R3-11:R3|PEPTIDE1,CHEM1,4:R3-1:R1|PEPTIDE1,CHEM1,7:R3-1:R2$$$V2.0) the same measures were 18 nM, 97%, 103%, 3.5 nM and 2.85 nM.
On the same counts, the results for `CC(C)C[C@]1(C)NC(=O)[C@H](Cc2ccc3ccccc3c2)NC(=O)[C@H](Cc2ccc(OCCN)cc2)NC(=O)[C@@H]2CSCC(=O)CSC[C@H](NC(=O)[C@H](CO)NC(=O)Cc3ccc(cc3)CNC(=O)CC[C@@H](C(=O)N[C@@H](CCCNC(=N)N)C(N)=O)NC1=O)C(=O)N[C@@H](Cc1c[nH]c3ccccc13)C(=O)N[C@@H](CCC(N)=O)C(=O)N2` [Ref 52, [4-Aminomethyl-phenylacetyl](1c)*SC(2a)WQC(2a)[Y(2-aminoethoxy)][2-Nal][2-Me-Leu]E(1c)R-[NH2], reference compound] ([X1]SCWQC[AEF][2Nal][αMeL]ER-NH2; linker 3-6 via CH2COCH2; lactam N-10) are 7.8 nM, 103%, 100%, 0.058 nM and 0.0475 nM.
For the molecule `CC(C)C[C@]1(C)NC(=O)[C@H](Cc2ccc3ccccc3c2)NC(=O)[C@H](Cc2ccc(OCCN)cc2)NC(=O)[C@@H]2CSCC(=O)CSC[C@H](NC(=O)[C@H](CO)NC(=O)c3cccc(c3)CNC(=O)CC[C@@H](C(=O)N[C@@H](CCCNC(=N)N)C(=O)N[C@@H](Cc3cccnc3)C(N)=O)NC1=O)C(=O)N[C@@H](Cc1c[nH]c3ccccc13)C(=O)N[C@@H](CCC(N)=O)C(=O)N2` [Ref 78, [(3-Aminomethyl)benzoyl](1c)*SC(2a)WQC(2a)[Y(2-aminoethoxy)][2-Nal][2-Me-Leu]E(1c)R[3-(3-Pyridyl)-Ala]-[NH2], reference compound] ([3Amb]SCWQC[AEF][2Nal][αMeL]ER[3Pal]-NH2; linker 3-6 via CH2COCH2; lactam N-10), in data set [1] (setting [4]), the half-maximal inhibitory concentration (IC50) was 0.13 nM. In addition, the Emax in data set [1] (setting [3]) was 100%. The share remaining at 1 h, 10 µM in data set [2] (pH 6.8, 1 h) is 5%. Moreover, the fraction remaining at 4 h, 10 µM in data set [2] (pH 6.8, 4 h, read-out: SIF (% remaining 4 h)) was 0%. At human IL-23R, the “% displacement (hIL-23R NIuc)” value came to 100%, the IC50 came out at 0.025 nM and the Ki came to 0.0205 nM.
With `CC(C)C[C@]1(C)NC(=O)[C@H](Cc2ccc3ccccc3c2)NC(=O)[C@H](Cc2ccc(OCCN)cc2)NC(=O)[C@@H]2CCNC(=O)CC[C@H](NC(=O)[C@H](CO)NC(=O)Cc3ccc(cc3)CNC(=O)CC[C@@H](C(=O)N[C@@H](CCN)C(N)=O)NC1=O)C(=O)N[C@@H](Cc1c[nH]c3ccccc13)C(=O)N[C@@H](CCC(N)=O)C(=O)N2` [Ref 125, [4-Aminomethyl-phenylacetyl](1c)*SE(2c)WQ[Dab](2c)[Y(2-aminoethoxy)][2-Nal][2-Me-Leu]E(1c)[Dab]-[NH2], reference compound], in data set [1] (setting [4]), the IC50 is 21 nM. Also, the Emax in data set [1] (setting [3]) was found to be 98%. Moreover, at human IL-23R, the “% displacement (hIL-23R NIuc)” value came out at 101%, the concentration for half-maximal inhibition (IC50) was found to be 0.73 nM and affinity was put at a Ki of 0.599 nM.
For `CC(C)C[C@]1(C)NC(=O)[C@H](Cc2ccc3ccccc3c2)NC(=O)[C@H](Cc2ccc(OCCN)cc2)NC(=O)[C@@H]2CCNC(=O)CC[C@H](NC(=O)[C@H](CO)NC(=O)Cc3ccc(cc3)CNC(=O)CC[C@@H](C(=O)N[C@@H](CCN)C(N)=O)NC1=O)C(=O)N[C@@H](Cc1c[nH]c3ccccc13)C(=O)N[C@@H](CCC(=O)N1CCCC1)C(=O)N2` [Ref 146, [4-Aminomethyl-phenylacetyl](1c)*SE(2c)W[Q(pyrrolidin)][Dab](2c)[Y(2-aminoethoxy)][2-Nal][2-Me-Leu]E(1c)[Dab]-[NH2], reference compound] ([X1]SEWE(Pyrrolidide)[Dab][AEF][2Nal][αMeL]E[Dab]-NH2; lactam 3-6, N-10), the “hIL-23 (pSTAT3) antagonist % inhibition” value in data set [1] (setting [3]) is on record as 98%. Further, the “% displacement (hIL-23R NIuc)” value at human IL-23R (Table 3-1, maximal displacement of TAMRA-labelled peptide) was 105%.
With `CC(=O)N[C@H]1CCCCNC(=O)CC[C@@H](C(=O)N[C@@H](CCN)C(=O)N[C@@H](Cc2cccnc2)C(N)=O)NC(=O)[C@](C)(CC(C)C)NC(=O)[C@H](Cc2ccc3ccccc3c2)NC(=O)[C@H](Cc2ccc(OCCN)cc2)NC(=O)[C@@H]2CSCC(=O)CSC[C@H](NC(=O)[C@H]([C@@H](C)O)NC1=O)C(=O)N[C@@H](Cc1c[nH]c3ccccc13)C(=O)N[C@@H](CCC(N)=O)C(=O)N2` [Ref 155, [Ac]-K(1c)TC(2a)WQC(2a)[Y(2-aminoethoxy)][2-Nal][2-Me-Leu]E(1c)[Dab][3-(3-Pyridyl)-Ala]-[NH2], reference compound] (Ac-KTCWQC[AEF][2Nal][αMeL]E[Dab][3Pal]-NH2; lactam 1-10; linker 3-6 via CH2COCH2), the IC50 in data set [1] was 0.031 nM. For the same molecule, the Emax in data set [1] (setting [3]) was determined as 100%. Also, at human IL-23R, the “% displacement (hIL-23R NIuc)” value worked out at 97%, the half-maximal inhibitory concentration (IC50) was 0.0099 nM and the Ki came to 0.00805 nM.

A word on the IC50: it is the concentration needed to halve the response being measured. Usually Ki stands for the dissociation constant of the complex between target and ligand, obtained from inhibition or displacement. A lower Ki goes with higher affinity. By share remaining is commonly meant what is left of the initial amount, in per cent.

(Values after patent EP4471048A1, “PEPTIDE INHIBITORS OF INTERLEUKIN-23 RECEPTOR” (Zealand Pharma A/S, priority 2023, dated 2024).)
